{
  "source": "patent US20250360109A1",
  "about": "“COMPOSITIONS AND METHODS FOR TREATING DEPRESSION IN FEMALES” (priority 2022, published 2025)",
  "key": {"[1]": {"tested_on": "adult subjects with major depressive disorder (MDD)", "assay": "Phase 2 placebo-controlled study in MDD, 17-item Hamilton Depression Rating Scale (HAM D-17) total score", "assay_type": "in vivo, human", "settings": "Male, mITT", "description": "(§1) A Phase 2, multicenter, double-blind, randomized, placebo-controlled study of the safety and efficacy of SP-624 in the treatment of adult subjects with major depressive disorder (MDD) as defined by the Diagnostic and Statistical Manual of Mental Disorders, Fifth Edition (DSM-5) was carried out. Following the successful completion of a Screening Phase, subjects were randomized to one of two treatment groups in a 1:1 ratio and received Compound 1 (SP-624) or placebo over a treatment period of four weeks (Treatment Group #1: SP-624 20 mg/day; Treatment Group #2: Placebo).\n(§2) Prior to initiating the 4-week treatment period, subjects completed a Screening/Baseline period of up to 28 days, during which time all screening assessments were performed, and any current depression medications discontinued. All screening assessments were completed before discontinuing any current depression medications. Subjects returned for a Baseline Visit to complete efficacy and safety assessments. During the treatment period, subjects returned to the investigative site to complete efficacy and safety assessments at the end of Weeks 1, 2, 3, and 4. After the final dose of study drug, subjects completed a follow-up period of two weeks and returned at the end of Weeks 5 and 6. Subjects may be treated with anti-depressant medications according to physician recommendations after completion of the Week 5 Visit.\n(§3) Each dose of Compound 1 was supplied as two capsules, each containing 10 mg of active pharmaceutical ingredient (API). Matching placebo capsules identical in shape and color to the active capsules were used.\n(§4) Secondary efficacy endpoints included: • Change from Baseline to Weeks 1, 2, and 3 in MADRS total score, • Change from Baseline to Weeks 1, 2, 3, and 4 in Clinical Global Impression-Severity (CGI-S) total score, • Change from Baseline to Week 5 and change from Week 4 to Week 5 in MADRS total score and CGI-S total score, • Change from Baseline to Week 2 and Week 4 in the 17-item Hamilton Depression Rating Scale (HAM D-17) total score, • Change from Baseline to Week 2 and Week 4 in the Sheehan Disability Scale (SDS), • Change from Baseline to Week 2 and Week 4 in the Quick Inventory of Depressive Symptomology-Self Report (QIDS-SR), and • Change from Baseline to Week 2 and Week 4 in the Quality of Life Enjoyment and Satisfaction Questionnaire-Short Form (Q-LES-Q-SF)."}, "[2]": {"tested_on": "adult subjects with major depressive disorder (MDD)", "assay": "Phase 2 placebo-controlled study in MDD, Clinical Global Impression-Severity (CGI-S) total score", "assay_type": "in vivo, human", "settings": "mITT; for Change from Baseline, CGI-S Total at Week 1, LSM Difference (95% CI) / Change from Baseline, CGI-S Total at Week 2, LSM Difference (95% CI) / Change from Baseline, CGI-S Total at Week 3, LSM Difference (95% CI) / Change from Baseline, CGI-S Total at Week 4, LSM Difference (95% CI): 20 mg/day vs Placebo; for CGI-S Total at Week 1, Mean (SD) / CGI-S Total at Week 1, Median / CGI-S Total at Week 2, Mean (SD) / CGI-S Total at Week 2, Median / CGI-S Total at Week 3, Mean (SD) / CGI-S Total at Week 3, Median / CGI-S Total at Week 4, Mean (SD) / CGI-S Total at Week 4, Median / Change from Baseline, CGI-S Total at Week 1, Mean (SD) / Change from Baseline, CGI-S Total at Week 1, Median / Change from Baseline, CGI-S Total at Week 2, Mean (SD) / Change from Baseline, CGI-S Total at Week 2, Median / Change from Baseline, CGI-S Total at Week 3, Mean (SD) / Change from Baseline, CGI-S Total at Week 3, Median / Change from Baseline, CGI-S Total at Week 4, Mean (SD) / Change from Baseline, CGI-S Total at Week 4, Median: 20 mg/day", "description": "as §1, §2, §3, §4"}},
  "data": [
    {"compound": "COC1=CC(=O)C[C@@H](C)[C@]12Oc1c(Cl)c(-c3nnc(C)o3)cc(OC)c1C2=O", "note": "[SP-624, (2S,6′R)-7-Chloro-2′,4-dimethoxy-6′-methyl-6-(5-methyl-1,3,4-oxadiazol-2-yl)-3H-spiro[1-benzofuran-2,1′-cyclohex [2]ene]-3,4′-dione]", "values": [
      {"measurement": "Change from Baseline, HAM-D-17 Total at Week 2, LSM Difference (95% CI)", "setting": "[1]; 20 mg/day vs Placebo", "value": "0.1 (−2.6, 2.8)"},
      {"measurement": "Change from Baseline, HAM-D-17 Total at Week 4, LSM Difference (95% CI)", "setting": "[1]; 20 mg/day vs Placebo", "value": "1.4 (−1.4, 4.3)"},
      {"measurement": "Change from Baseline, HAM-D-17 Total at Week 2, Mean (SD)", "setting": "[1]; 20 mg/day", "value": "−5.7 (5.90)"},
      {"measurement": "Change from Baseline, HAM-D-17 Total at Week 2, Median", "setting": "[1]; 20 mg/day", "value": "−5"},
      {"measurement": "Change from Baseline, HAM-D-17 Total at Week 4, Mean (SD)", "setting": "[1]; 20 mg/day", "value": "−7.8 (6.57)"},
      {"measurement": "Change from Baseline, HAM-D-17 Total at Week 4, Median", "setting": "[1]; 20 mg/day", "value": "−7"},
      {"measurement": "HAM-D-17 Total at Week 2, Mean (SD)", "setting": "[1]; 20 mg/day", "value": "16.2 (6.58)"},
      {"measurement": "HAM-D-17 Total at Week 2, Median", "setting": "[1]; 20 mg/day", "value": 17},
      {"measurement": "HAM-D-17 Total at Week 4, Mean (SD)", "setting": "[1]; 20 mg/day", "value": "14.3 (6.96)"},
      {"measurement": "HAM-D-17 Total at Week 4, Median", "setting": "[1]; 20 mg/day", "value": 15},
      {"measurement": "Change from Baseline, CGI-S Total at Week 1, LSM Difference (95% CI)", "setting": "[2]; Female", "value": "−0.1 (−0.3, 0.1)"},
      {"measurement": "Change from Baseline, CGI-S Total at Week 2, LSM Difference (95% CI)", "setting": "[2]; Female", "value": "−0.3 (−0.5, 0.0)"},
      {"measurement": "Change from Baseline, CGI-S Total at Week 3, LSM Difference (95% CI)", "setting": "[2]; Female", "value": "−0.4 (−0.7, −0.1)"},
      {"measurement": "Change from Baseline, CGI-S Total at Week 4, LSM Difference (95% CI)", "setting": "[2]; Female", "value": "−0.5 (−0.8, −0.1)"},
      {"measurement": "CGI-S Total at Week 1, Mean (SD)", "setting": "[2]; Female", "value": "4.0 (0.89)"},
      {"measurement": "CGI-S Total at Week 1, Median", "setting": "[2]; Female", "value": 4},
      {"measurement": "CGI-S Total at Week 2, Mean (SD)", "setting": "[2]; Female", "value": "3.6 (0.97)"},
      {"measurement": "CGI-S Total at Week 2, Median", "setting": "[2]; Female", "value": 4},
      {"measurement": "CGI-S Total at Week 3, Mean (SD)", "setting": "[2]; Female", "value": "3.4 (1.15)"},
      {"measurement": "CGI-S Total at Week 3, Median", "setting": "[2]; Female", "value": 4},
      {"measurement": "CGI-S Total at Week 4, Mean (SD)", "setting": "[2]; Female", "value": "3.3 (1.20)"},
      {"measurement": "CGI-S Total at Week 4, Median", "setting": "[2]; Female", "value": 3},
      {"measurement": "Change from Baseline, CGI-S Total at Week 1, Mean (SD)", "setting": "[2]; Female", "value": "−0.5 (0.80)"},
      {"measurement": "Change from Baseline, CGI-S Total at Week 1, Median", "setting": "[2]; Female", "value": 0},
      {"measurement": "Change from Baseline, CGI-S Total at Week 2, Mean (SD)", "setting": "[2]; Female", "value": "−0.8 (0.96)"},
      {"measurement": "Change from Baseline, CGI-S Total at Week 2, Median", "setting": "[2]; Female", "value": "−1"},
      {"measurement": "Change from Baseline, CGI-S Total at Week 3, Mean (SD)", "setting": "[2]; Female", "value": "−1.1 (1.13)"},
      {"measurement": "Change from Baseline, CGI-S Total at Week 3, Median", "setting": "[2]; Female", "value": "−1"},
      {"measurement": "Change from Baseline, CGI-S Total at Week 4, Mean (SD)", "setting": "[2]; Female", "value": "−1.2 (1.14)"},
      {"measurement": "Change from Baseline, CGI-S Total at Week 4, Median", "setting": "[2]; Female", "value": "−1"},
      {"measurement": "Change from Baseline, CGI-S Total at Week 1, LSM Difference (95% CI)", "setting": "[2]; Male", "value": "0.0 (−0.5, 0.4)"},
      {"measurement": "Change from Baseline, CGI-S Total at Week 2, LSM Difference (95% CI)", "setting": "[2]; Male", "value": "−0.1 (−0.5, 0.3)"},
      {"measurement": "Change from Baseline, CGI-S Total at Week 3, LSM Difference (95% CI)", "setting": "[2]; Male", "value": "0.0 (−0.4, 0.4)"},
      {"measurement": "Change from Baseline, CGI-S Total at Week 4, LSM Difference (95% CI)", "setting": "[2]; Male", "value": "0.2 (−0.3, 0.6)"},
      {"measurement": "CGI-S Total at Week 1, Mean (SD)", "setting": "[2]; Male", "value": "3.9 (0.84)"},
      {"measurement": "CGI-S Total at Week 1, Median", "setting": "[2]; Male", "value": 4},
      {"measurement": "CGI-S Total at Week 2, Mean (SD)", "setting": "[2]; Male", "value": "3.5 (1.18)"},
      {"measurement": "CGI-S Total at Week 2, Median", "setting": "[2]; Male", "value": 4},
      {"measurement": "CGI-S Total at Week 3, Mean (SD)", "setting": "[2]; Male", "value": "3.4 (1.15)"},
      {"measurement": "CGI-S Total at Week 3, Median", "setting": "[2]; Male", "value": 4},
      {"measurement": "CGI-S Total at Week 4, Mean (SD)", "setting": "[2]; Male", "value": "3.4 (1.27)"},
      {"measurement": "CGI-S Total at Week 4, Median", "setting": "[2]; Male", "value": 4},
      {"measurement": "Change from Baseline, CGI-S Total at Week 1, Mean (SD)", "setting": "[2]; Male", "value": "−0.5 (0.85)"},
      {"measurement": "Change from Baseline, CGI-S Total at Week 1, Median", "setting": "[2]; Male", "value": 0},
      {"measurement": "Change from Baseline, CGI-S Total at Week 2, Mean (SD)", "setting": "[2]; Male", "value": "−0.9 (1.16)"},
      {"measurement": "Change from Baseline, CGI-S Total at Week 2, Median", "setting": "[2]; Male", "value": "−1"},
      {"measurement": "Change from Baseline, CGI-S Total at Week 3, Mean (SD)", "setting": "[2]; Male", "value": "−1.0 (1.16)"},
      {"measurement": "Change from Baseline, CGI-S Total at Week 3, Median", "setting": "[2]; Male", "value": "−1"},
      {"measurement": "Change from Baseline, CGI-S Total at Week 4, Mean (SD)", "setting": "[2]; Male", "value": "−1.0 (1.27)"},
      {"measurement": "Change from Baseline, CGI-S Total at Week 4, Median", "setting": "[2]; Male", "value": "−1"}
    ]}
  ]
}
